“Also recorded” adds a separate entry of the source.
Key:
[1] = system: HER-5, HER-3081-3-4, HER-3081-3-10 and HER-3081-3-19 cells; test: Mitogen responsiveness of HER2 transgenic cell lines, crystal violet; type: cell-based, mouse; conditions: heregulin 0.005-5 nM or EGF 0.05-50 ng/ml, 4 days, FIG. 11
Procedure: Briefly, cells were detached from a T75 flask with Dissociation Solution (Sigma) and plated in fibronectin coated 96 well plates. Approximately 10,000 cells were plated per well in 0.1 ml of fully supplemented media. […] After 4 days plates were washed twice with PBS (pH 7.5), stained with crystal violet (0.5% in methanol), dried, solubilized and the optical density measured at a wavelength of 540 nm on a plate reader, essentially as described in Sugarman et al. Science 230:943-945 (1985).

[2] = system: MMTV-HER2-transgenic tumors transplanted into the mammary fat pad of FVB mice; test: Transplanted MMTV-HER2-transgenic tumor model in FVB mice; type: in vivo, mouse
Description: Two mm3 pieces of MMTV-HER2-transgenic tumors were transplanted into the mammary fat pad of FVB mice.
All animals received five doses.
The tumor was surgically resected under aseptic conditions and minced into small pieces, 2 mm^3, which were then transplanted into the mammary fat pad of wild-type FVB female mice.

[3] = system: tumors from the HER2 transgenic cell line HER-3081-3-10; test: Growth of tumors from cell line HER-3081-3-10 in mice; type: in vivo, mouse; conditions: 4D5, 7C2 30 mg/kg intraperitoneally for 4 weeks; taxol 15.6 mg/kg subcutaneously daily for 5 days; tumors 100 mm^3, FIG. 16
Procedure: The efficacy of taxol and anti-HER2 monclonal antibodies 7C2 and 4D5 in preventing tumor growth was assessed (FIG. 16). At day 0, 6-8 week old FVP mice were innoculated under the skin with 2 million tumor cells from cell line HER-3081-3-10. When the tumors reached 100 mm^3 the mice were separated into 5 groups with 9 animals per group. Antibodies 4D5 and 7C2 were given intraperitoneally at 30 mg/kg for 4 weeks. Taxol was given subcutaneously daily for 5 days at 15.6 mg/kg. Tumors were measured during the study at regular intervals.

## heregulin
[1]
  proliferation in response to mitogen: only the HER-5 cell line proliferated; also recorded: mitogens only for cell line HER-5

## RITUXAN®: an unrelated antibody, used as negative control
[2]; FIG. 7, unconjugated control antibody
  efficacy on tumor size: no efficacy
[2]; FIG. 8, control antibody and control conjugate
  effect on tumor growth: Neither unconjugated RITUXAN® (control MAb E25) nor RITUXAN®-DM1 had any obvious effect on tumor growth

## CC(=O)O[C@H]1C(=O)[C@@]2(C)[C@H]([C@H](OC(=O)c3ccccc3)[C@]3(O)C[C@H](OC(=O)[C@H](O)[C@@H](NC(=O)c4ccccc4)c4ccccc4)C(C)=C1C3(C)C)[C@]1(OC(C)=O)CO[C@@H]1C[C@@H]2O [taxol, paclitaxel]
[3]
  reduction of tumor growth: more effective than either of the antibodies alone

Source: patent publication US6632979B2, “Rodent HER2 tumor model” (Genentech, Inc., priority 2000, dated 2003)
